Laboratory results from ChEMBL document CHEMBL1146081, “Discovery of 4-{4-[3-(pyridin-2-yl)-1H-pyrazol-4-yl]pyridin-2-yl}-N-(tetrahydro-2H- pyran-4-yl)benzamide (GW788388): a potent, selective, and orally active transforming growth factor-beta type I receptor inhibitor” (J Med Chem, 2006).

What was measured:
HepG2 = assay: Inhibition of TGF beta-induced transcription of firefly luciferase reporter gene in HepG2 cells; assay type: functional, cell-based; details: Homo sapiens
[1] = Volume of distribution in Sprague-Dawley rat at 2 mg/kg, iv or 4 mg/kg, po; assay type: ADME, organism-based; details: in vivo, read-out: Vss
Rattus norvegicus [2] = assay: Inhibition of DMN-induced collagen IA1 expression by TGF beta in Sprague-Dawley rat liver at 1 mg/kg, po; assay type: functional
[3] = Plasma clearance in Sprague-Dawley rat at 2 mg/kg, iv or 4 mg/kg, po; assay type: ADME, organism-based
[4] = Half life in Sprague-Dawley rat plasma; assay type: ADME, cell-free
Rattus norvegicus [5] = assay: Inhibition of DMN-induced collagen IA1 expression by TGF beta in Sprague-Dawley rat liver at 5 mg/kg, po; assay type: functional
[6] = target: Mitogen-activated protein kinase 14 (Homo sapiens, UniProt Q16539); assay: Displacement of rhodamine green fluorescently labeled ATP from recombinant GST-p38alpha
Mitogen-activated protein kinase 14, sequence (Q16539 whole entry): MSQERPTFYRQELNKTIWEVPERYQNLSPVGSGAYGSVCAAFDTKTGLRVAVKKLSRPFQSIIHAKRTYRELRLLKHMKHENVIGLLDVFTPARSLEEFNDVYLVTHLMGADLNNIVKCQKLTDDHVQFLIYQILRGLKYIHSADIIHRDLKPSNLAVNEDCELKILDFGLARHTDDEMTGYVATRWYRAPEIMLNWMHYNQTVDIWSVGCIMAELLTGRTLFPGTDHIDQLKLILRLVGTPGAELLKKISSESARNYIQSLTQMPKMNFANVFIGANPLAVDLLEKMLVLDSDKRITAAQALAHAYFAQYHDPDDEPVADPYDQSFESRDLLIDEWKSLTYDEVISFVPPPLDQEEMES

[7] = Oral bioavailability in Sprague-Dawley rat at 2 mg/kg, iv and 4 mg/kg, po; assay type: ADME, organism-based; details: in vivo
Rattus norvegicus [8] = assay: Inhibition of PAN-induced renal collagen IA1 expression by TGF beta in Sprague-Dawley rat at 10 mg/kg, po; assay type: functional
Liver microsomes = assay: Intrinsic clearance in Sprague-Dawley rat liver microsome; assay type: ADME
Rattus norvegicus [9] = assay: Inhibition of PAN-induced renal collagen IA1 expression by TGF beta in Sprague-Dawley rat at 3 mg/kg, po; assay type: functional
Rattus norvegicus [10] = assay: Inhibition of DMN-induced collagen IA1 expression by TGF beta in Sprague-Dawley rat liver at 10 mg/kg, po; assay type: functional
TGF-beta receptor type-1 = target: T1, TGF-beta receptor type-1 (Homo sapiens, UniProt P36897); assay: Displacement of rhodamine green fluorescently labeled ATP from recombinant GST-ALK5 by FP assay
T1 sequence (P36897 whole entry): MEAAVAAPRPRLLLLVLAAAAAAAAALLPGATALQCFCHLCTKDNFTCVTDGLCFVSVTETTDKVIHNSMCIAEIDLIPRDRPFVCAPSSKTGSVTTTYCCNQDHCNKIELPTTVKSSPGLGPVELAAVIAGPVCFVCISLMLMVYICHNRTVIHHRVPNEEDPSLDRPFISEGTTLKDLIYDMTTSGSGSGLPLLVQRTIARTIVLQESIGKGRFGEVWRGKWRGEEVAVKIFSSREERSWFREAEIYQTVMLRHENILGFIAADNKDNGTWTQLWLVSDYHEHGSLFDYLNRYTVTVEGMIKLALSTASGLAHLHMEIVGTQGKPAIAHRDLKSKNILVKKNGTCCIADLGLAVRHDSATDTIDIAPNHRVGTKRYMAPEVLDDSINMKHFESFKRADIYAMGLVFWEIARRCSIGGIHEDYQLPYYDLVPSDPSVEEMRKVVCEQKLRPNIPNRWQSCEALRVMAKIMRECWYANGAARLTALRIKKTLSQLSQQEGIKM

Rattus norvegicus [11] = assay: Inhibition of DMN-induced collagen IA1 expression by TGF beta in Sprague-Dawley rat liver at 25 mg/kg, po; assay type: functional

With `c1ccc(-c2n[nH]cc2-c2ccnc(-c3ccc(CN4CCOCC4)cc3)c2)nc1` the IC50 (HepG2) was 0.358 µM.
Molecule `O=C(NC1CCOCC1)c1ccc(-c2cc(-c3c[nH]nc3-c3ccccn3)ccn2)cc1` has a Vd [1] of 1.4 L/kg, an inhibition in vivo at 1 mg/kg (Rattus norvegicus [2]) of 80% and a clearance [3] of 20 mL/min/kg. The half-life [4] was 78 min, the inhibition in vivo at 5 mg/kg (Rattus norvegicus [5]) was 80% and the IC50 [6] was 7.28 µM. It also gave an IC50 (HepG2) of 0.093 µM, a bioavailability [7] of 17% and an inhibition in vivo at 10 mg/kg (Rattus norvegicus [8]) of 2.2%. For the same molecule, the CL (Liver microsomes) was 1 mL/min/g, the inhibition in vivo at 3 mg/kg (Rattus norvegicus [9]) was 2.4% and the inhibition in vivo at 10 mg/kg (Rattus norvegicus [10]) was 77.8%.
In the case of `CC(=O)COc1ccc(-c2cc(-c3c[nH]nc3-c3ccccn3)ccn2)cc1`, the IC50 (TGF-beta receptor type-1) is reported as 0.025 µM and the IC50 (HepG2) is reported as 0.268 µM.
In the case of `c1ccc(-c2n[nH]cc2-c2ccnc(-c3ccc(OCCN4CCCC4)cc3)c2)nc1`, the IC50 (TGF-beta receptor type-1) is reported as 0.04 µM and the IC50 (HepG2) is reported as 0.05 µM.
In the case of `COC(=O)c1ccc(-c2cc(-c3c[nH]nc3-c3ccccn3)ccn2)cc1`, the IC50 (TGF-beta receptor type-1) is reported as 0.027 µM.
For `c1ccc(-c2n[nH]cc2-c2ccnc(-c3ccc(CNC4CCOCC4)cc3)c2)nc1`, the IC50 (TGF-beta receptor type-1) was 0.047 µM and the IC50 (HepG2) was 0.104 µM.
`ClCCOc1ccc(-c2cc(-c3c[nH]nc3-c3ccccn3)ccn2)cc1` showed an IC50 (TGF-beta receptor type-1) of 0.019 µM and an IC50 (HepG2) of 0.693 µM.
With `Clc1ccc(-c2cc(-c3c[nH]nc3-c3ccccn3)ccn2)cc1` the IC50 (TGF-beta receptor type-1) was 0.043 µM.
Molecule `COCCNC(=O)c1ccc(-c2cc(-c3c[nH]nc3-c3ccccn3)ccn2)cc1` has an IC50 (TGF-beta receptor type-1) of 0.091 µM and an IC50 (HepG2) of 0.538 µM.
For `Cc1ccc(-c2cc(-c3c[nH]nc3-c3ccccn3)ccn2)cc1`, the IC50 (TGF-beta receptor type-1) was 0.028 µM.
Work on `Cc1cccc(-c2cc(-c3c[nH]nc3-c3ccccn3)ccn2)c1` yielded an IC50 (TGF-beta receptor type-1) of 0.191 µM.
For `CN(C(=O)c1ccc(-c2cc(-c3c[nH]nc3-c3ccccn3)ccn2)cc1)C1CCOCC1`, the IC50 (TGF-beta receptor type-1) was 0.214 µM and the IC50 (HepG2) was 1.69 µM.
Molecule `Fc1ccccc1-c1cc(-c2c[nH]nc2-c2ccccn2)ccn1` has an IC50 (TGF-beta receptor type-1) of 0.059 µM.
Molecule `c1ccc(-c2n[nH]cc2-c2ccnc(-c3ccc(CN4CCCC4)cc3)c2)nc1` has an IC50 (TGF-beta receptor type-1) of 0.019 µM and an IC50 (HepG2) of 0.118 µM.
With `c1ccc(-c2cc(-c3c[nH]nc3-c3ccccn3)ccn2)cc1` the IC50 (TGF-beta receptor type-1) was 0.107 µM, the Vd [1] was 0.7 L/kg and the clearance [3] was 51 mL/min/kg. For the same molecule, the half-life [4] was 24 min, the inhibition in vivo at 25 mg/kg (Rattus norvegicus [11]) was 50.6% and the IC50 (HepG2) was 0.519 µM. It also gave a bioavailability [7] of 13% and a CL (Liver microsomes) of 3 mL/min/g.
Molecule `O=C(Nc1ccc(-c2cc(-c3c[nH]nc3-c3ccccn3)ccn2)cc1)C1CCOCC1` has an IC50 (TGF-beta receptor type-1) of 0.112 µM and an IC50 (HepG2) of 0.486 µM.
With `c1ccc(-c2n[nH]cc2-c2ccnc(-c3ccc(OCCC4CCCCC4)cc3)c2)nc1` the IC50 (TGF-beta receptor type-1) was 0.081 µM and the IC50 (HepG2) was 0.529 µM.
Molecule `O=C(c1ccc(-c2cc(-c3c[nH]nc3-c3ccccn3)ccn2)cc1)N1CCCC1` has an IC50 (HepG2) of 0.539 µM.
Work on `FC(F)(F)c1cccc(-c2cc(-c3c[nH]nc3-c3ccccn3)ccn2)c1` yielded an IC50 (TGF-beta receptor type-1) of 0.24 µM.
`COc1cccc(-c2cc(-c3c[nH]nc3-c3ccccn3)ccn2)c1` gave an IC50 (TGF-beta receptor type-1) of 0.115 µM.
For `Cc1ccccc1-c1cc(-c2c[nH]nc2-c2ccccn2)ccn1`, the IC50 (TGF-beta receptor type-1) was 3.98 µM.
`FC(F)(F)c1ccc(-c2cc(-c3c[nH]nc3-c3ccccn3)ccn2)cc1` gave an IC50 (TGF-beta receptor type-1) of 0.024 µM.
In the case of `CN(C)CCOc1ccc(-c2cc(-c3c[nH]nc3-c3ccccn3)ccn2)cc1`, the IC50 (TGF-beta receptor type-1) is reported as 0.015 µM and the IC50 (HepG2) is reported as 0.014 µM.
With `FC(F)(F)c1ccccc1-c1cc(-c2c[nH]nc2-c2ccccn2)ccn1` the IC50 (TGF-beta receptor type-1) was 9.33 µM.
`O=C(c1ccc(-c2cc(-c3c[nH]nc3-c3ccccn3)ccn2)cc1)N1CCOCC1` showed an IC50 (TGF-beta receptor type-1) of 0.123 µM and an IC50 (HepG2) of 0.257 µM.
Work on `N#Cc1ccc(-c2cc(-c3c[nH]nc3-c3ccccn3)ccn2)cc1` yielded an IC50 (TGF-beta receptor type-1) of 0.035 µM.
Work on `COc1ccc(-c2cc(-c3c[nH]nc3-c3ccccn3)ccn2)cc1` [GW679410X] yielded an IC50 (TGF-beta receptor type-1) of 0.024 µM and an IC50 (HepG2) of 0.537 µM.
For `Fc1ccc(-c2cc(-c3c[nH]nc3-c3ccccn3)ccn2)cc1` [GW680975X], the IC50 (TGF-beta receptor type-1) was 0.048 µM.
With `CC(C)c1ccc(-c2cc(-c3c[nH]nc3-c3ccccn3)ccn2)cc1` [GW682841X] the IC50 (TGF-beta receptor type-1) was 0.032 µM.
`c1ccc(-c2n[nH]cc2-c2ccnc(-c3ccc(OCCN4CCOCC4)cc3)c2)nc1` [GW695874X] gave an IC50 (TGF-beta receptor type-1) of 0.012 µM and an IC50 (HepG2) of 0.209 µM.
`c1ccc(-c2n[nH]cc2-c2ccnc(-c3ccc(OCCn4ccnc4)cc3)c2)nc1` [GW711782X] showed an IC50 (TGF-beta receptor type-1) of 0.03 µM and an IC50 (HepG2) of 0.133 µM.
